{"source": "paper PMC5428509", "about": "“Irreversible inhibition of BTK kinase by a novel highly selective inhibitor CHMFL-BTK-11 suppresses inflammatory response in rheumatoid arthritis model” (Scientific Reports, 2017)", "key": {"[1]": {"target": "T1, BTK kinase (Bruton's tyrosine kinase) (Homo sapiens, UniProt Q06187)", "T1 construct": "purified BTK kinase", "experiment": "ADP-Glo biochemical kinase assay; supported by Y551 autophosphorylation of wt vs C481S BTK and KinomeScan binding"}, "JAK3 kinase": {"target": "T2, JAK3 kinase (Homo sapiens, UniProt P52333)", "T2 construct": "purified JAK3 kinase protein", "experiment": "ADP-Glo biochemical kinase assay; also strong binding in KinomeScan at […]"}, "NEK10": {"target": "NEK10 (Homo sapiens, UniProt Q6ZWH5)", "experiment": "biochemical", "design": "KinomeScan competition binding panel (DiscoveRx), percent of control at 1 uM", "details": "read-out: Percent Control", "in_short": "(§1)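 KinomeScan technology used to profile binding across a panel of 456 kinases and mutants.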"}, "AKT2": {"target": "AKT2 (Homo sapiens, UniProt P31751)", "experiment": "biochemical", "design": "KinomeScan competition binding panel (DiscoveRx), percent of control at 1 uM", "details": "read-out: Percent Control", "in_short": "as §1"}, "SIK": {"target": "T3, SIK (Homo sapiens, UniProt P57059)", "T3 construct": "gene SIK1", "experiment": "biochemical", "design": "KinomeScan competition binding panel (DiscoveRx), percent of control at 1 uM", "details": "read-out: Percent Control", "in_short": "as §1"}, "NEK2": {"target": "NEK2 (Homo sapiens, UniProt P51955)", "experiment": "biochemical", "design": "KinomeScan competition binding panel (DiscoveRx), percent of control at 1 uM", "details": "read-out: Percent Control", "in_short": "as §1"}, "MAST1": {"target": "MAST1 (Homo sapiens, UniProt Q9Y2H9)", "experiment": "biochemical", "design": "KinomeScan competition binding panel (DiscoveRx), percent of control at 1 uM", "details": "read-out: Percent Control", "in_short": "as §1"}, "SIK2": {"target": "SIK2 (Homo sapiens, UniProt Q9H0K1)", "experiment": "biochemical", "design": "KinomeScan competition binding panel (DiscoveRx), percent of control at 1 uM", "details": "read-out: Percent Control", "in_short": "as §1"}, "GSK3B": {"target": "GSK3B (Homo sapiens, UniProt P49841)", "sequence (P49841 whole entry)": "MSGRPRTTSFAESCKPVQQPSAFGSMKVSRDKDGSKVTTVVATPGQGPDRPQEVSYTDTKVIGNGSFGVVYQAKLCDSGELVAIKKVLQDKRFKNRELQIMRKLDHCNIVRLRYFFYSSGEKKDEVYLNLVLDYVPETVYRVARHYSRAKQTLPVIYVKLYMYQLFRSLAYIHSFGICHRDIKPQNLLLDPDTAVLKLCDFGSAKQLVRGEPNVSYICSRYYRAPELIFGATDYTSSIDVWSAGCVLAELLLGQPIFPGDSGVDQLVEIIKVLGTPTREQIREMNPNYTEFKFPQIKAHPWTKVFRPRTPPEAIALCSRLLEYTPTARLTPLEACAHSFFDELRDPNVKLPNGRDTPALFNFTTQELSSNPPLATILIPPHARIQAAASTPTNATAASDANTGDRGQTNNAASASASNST", "experiment": "biochemical", "design": "KinomeScan competition binding panel (DiscoveRx), percent of control at 1 uM", "details": "read-out: Percent Control", "in_short": "as §1"}, "DYRK2": {"target": "DYRK2 (Homo sapiens, UniProt Q92630)", "sequence (Q92630 whole entry)": "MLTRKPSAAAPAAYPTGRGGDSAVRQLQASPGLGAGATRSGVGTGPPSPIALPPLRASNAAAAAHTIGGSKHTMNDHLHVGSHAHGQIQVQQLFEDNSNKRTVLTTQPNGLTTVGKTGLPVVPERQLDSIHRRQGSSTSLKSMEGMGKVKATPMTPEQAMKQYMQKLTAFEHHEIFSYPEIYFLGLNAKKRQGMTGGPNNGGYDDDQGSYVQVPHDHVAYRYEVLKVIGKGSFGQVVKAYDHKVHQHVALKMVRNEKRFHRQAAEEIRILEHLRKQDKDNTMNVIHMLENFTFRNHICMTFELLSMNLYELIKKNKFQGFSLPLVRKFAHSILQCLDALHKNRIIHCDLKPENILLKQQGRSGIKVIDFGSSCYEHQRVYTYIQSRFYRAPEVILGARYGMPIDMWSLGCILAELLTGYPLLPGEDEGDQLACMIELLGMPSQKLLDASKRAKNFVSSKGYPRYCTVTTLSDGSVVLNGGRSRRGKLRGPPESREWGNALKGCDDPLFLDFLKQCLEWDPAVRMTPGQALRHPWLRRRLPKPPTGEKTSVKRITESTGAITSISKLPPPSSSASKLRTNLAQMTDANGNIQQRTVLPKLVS", "experiment": "biochemical", "design": "KinomeScan competition binding panel (DiscoveRx), percent of control at 1 uM", "details": "read-out: Percent Control", "in_short": "as §1"}, "ERBB3": {"target": "ERBB3 (Homo sapiens, UniProt P21860)", "sequence (P21860 whole entry)": "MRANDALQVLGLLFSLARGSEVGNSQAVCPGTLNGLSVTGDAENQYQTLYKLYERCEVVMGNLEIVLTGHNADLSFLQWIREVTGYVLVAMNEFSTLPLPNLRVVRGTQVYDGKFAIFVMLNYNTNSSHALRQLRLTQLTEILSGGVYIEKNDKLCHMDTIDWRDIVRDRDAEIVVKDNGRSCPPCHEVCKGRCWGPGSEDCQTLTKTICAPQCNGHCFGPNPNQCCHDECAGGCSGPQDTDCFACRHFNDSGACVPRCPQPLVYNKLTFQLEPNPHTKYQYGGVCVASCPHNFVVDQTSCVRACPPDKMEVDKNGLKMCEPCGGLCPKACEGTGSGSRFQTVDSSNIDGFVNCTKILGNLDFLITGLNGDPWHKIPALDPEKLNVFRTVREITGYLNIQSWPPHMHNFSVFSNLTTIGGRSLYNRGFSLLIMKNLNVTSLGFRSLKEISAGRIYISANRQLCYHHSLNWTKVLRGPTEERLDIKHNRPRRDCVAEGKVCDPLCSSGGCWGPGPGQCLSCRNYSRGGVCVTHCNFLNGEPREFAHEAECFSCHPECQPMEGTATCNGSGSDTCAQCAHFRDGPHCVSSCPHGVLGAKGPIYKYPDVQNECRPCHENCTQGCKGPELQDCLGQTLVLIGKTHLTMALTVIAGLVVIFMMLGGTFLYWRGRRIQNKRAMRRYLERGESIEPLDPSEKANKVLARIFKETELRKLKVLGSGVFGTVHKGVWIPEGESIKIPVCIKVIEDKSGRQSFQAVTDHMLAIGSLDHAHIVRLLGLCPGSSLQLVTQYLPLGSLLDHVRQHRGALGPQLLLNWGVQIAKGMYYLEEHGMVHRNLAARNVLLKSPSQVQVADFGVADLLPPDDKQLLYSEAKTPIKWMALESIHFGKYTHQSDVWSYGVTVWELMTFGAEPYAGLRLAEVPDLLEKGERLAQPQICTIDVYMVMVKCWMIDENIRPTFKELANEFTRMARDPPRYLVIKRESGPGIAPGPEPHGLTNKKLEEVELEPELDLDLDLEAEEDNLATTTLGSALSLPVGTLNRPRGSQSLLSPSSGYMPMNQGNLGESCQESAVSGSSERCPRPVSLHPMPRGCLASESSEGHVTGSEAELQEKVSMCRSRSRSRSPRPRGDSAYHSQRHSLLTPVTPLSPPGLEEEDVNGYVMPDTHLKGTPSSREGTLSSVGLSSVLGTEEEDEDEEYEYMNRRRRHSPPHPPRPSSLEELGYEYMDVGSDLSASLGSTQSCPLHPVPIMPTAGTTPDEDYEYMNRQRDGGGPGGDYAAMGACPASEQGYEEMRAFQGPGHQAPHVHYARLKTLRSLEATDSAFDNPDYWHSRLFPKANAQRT", "experiment": "biochemical", "design": "KinomeScan competition binding panel (DiscoveRx), percent of control at 1 uM", "details": "read-out: Percent Control", "in_short": "as §1"}, "FLT3(N841I)": {"target": "FLT3(N841I) (Homo sapiens, UniProt P36888, N841I)", "experiment": "biochemical", "design": "KinomeScan competition binding panel (DiscoveRx), percent of control at 1 uM", "details": "read-out: Percent Control", "in_short": "as §1"}, "ITK": {"target": "ITK (Homo sapiens, UniProt Q08881)", "experiment": "biochemical", "design": "KinomeScan competition binding panel (DiscoveRx), percent of control at 1 uM", "details": "read-out: Percent Control", "in_short": "as §1"}, "MLK1": {"target": "T4, MLK1 (Homo sapiens, UniProt P80192)", "T4 construct": "gene MAP3K9", "experiment": "biochemical", "design": "KinomeScan competition binding panel (DiscoveRx), percent of control at 1 uM", "details": "read-out: Percent Control", "in_short": "as §1"}, "GRK7": {"target": "GRK7 (Homo sapiens, UniProt Q8WTQ7)", "experiment": "biochemical", "design": "KinomeScan competition binding panel (DiscoveRx), percent of control at 1 uM", "details": "read-out: Percent Control", "in_short": "as §1"}, "CDC2L5": {"target": "T5, CDC2L5 (Homo sapiens, UniProt Q14004)", "T5 construct": "gene CDK13", "experiment": "biochemical", "design": "KinomeScan competition binding panel (DiscoveRx), percent of control at 1 uM", "details": "read-out: Percent Control", "in_short": "as §1"}, "RIPK4": {"target": "RIPK4 (Homo sapiens, UniProt P57078)", "sequence (P57078 whole entry)": "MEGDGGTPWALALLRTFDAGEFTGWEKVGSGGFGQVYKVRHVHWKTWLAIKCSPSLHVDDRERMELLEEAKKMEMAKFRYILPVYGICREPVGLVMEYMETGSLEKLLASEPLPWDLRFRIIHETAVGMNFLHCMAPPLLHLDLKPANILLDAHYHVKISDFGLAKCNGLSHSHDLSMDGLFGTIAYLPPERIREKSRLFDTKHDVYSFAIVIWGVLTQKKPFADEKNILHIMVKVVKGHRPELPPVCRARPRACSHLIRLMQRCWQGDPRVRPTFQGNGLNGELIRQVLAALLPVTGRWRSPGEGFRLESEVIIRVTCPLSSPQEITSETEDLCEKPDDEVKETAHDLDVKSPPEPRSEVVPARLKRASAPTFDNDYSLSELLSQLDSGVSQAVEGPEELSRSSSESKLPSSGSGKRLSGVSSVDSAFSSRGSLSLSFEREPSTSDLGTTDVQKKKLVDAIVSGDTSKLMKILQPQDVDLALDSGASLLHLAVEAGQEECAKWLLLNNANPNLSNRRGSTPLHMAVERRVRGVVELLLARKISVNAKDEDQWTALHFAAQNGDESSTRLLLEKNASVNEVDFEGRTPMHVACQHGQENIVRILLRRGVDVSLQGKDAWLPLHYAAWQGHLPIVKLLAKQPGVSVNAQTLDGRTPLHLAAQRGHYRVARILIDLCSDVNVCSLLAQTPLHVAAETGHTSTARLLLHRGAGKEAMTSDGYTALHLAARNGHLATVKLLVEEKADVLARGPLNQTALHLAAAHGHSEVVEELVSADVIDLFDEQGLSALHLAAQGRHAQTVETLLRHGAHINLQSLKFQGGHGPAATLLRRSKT", "experiment": "biochemical", "design": "KinomeScan competition binding panel (DiscoveRx), percent of control at 1 uM", "details": "read-out: Percent Control", "in_short": "as §1"}, "KIT(A829P)": {"target": "KIT(A829P) (Homo sapiens, UniProt P10721, A829P)", "sequence (P10721 whole entry A829P)": "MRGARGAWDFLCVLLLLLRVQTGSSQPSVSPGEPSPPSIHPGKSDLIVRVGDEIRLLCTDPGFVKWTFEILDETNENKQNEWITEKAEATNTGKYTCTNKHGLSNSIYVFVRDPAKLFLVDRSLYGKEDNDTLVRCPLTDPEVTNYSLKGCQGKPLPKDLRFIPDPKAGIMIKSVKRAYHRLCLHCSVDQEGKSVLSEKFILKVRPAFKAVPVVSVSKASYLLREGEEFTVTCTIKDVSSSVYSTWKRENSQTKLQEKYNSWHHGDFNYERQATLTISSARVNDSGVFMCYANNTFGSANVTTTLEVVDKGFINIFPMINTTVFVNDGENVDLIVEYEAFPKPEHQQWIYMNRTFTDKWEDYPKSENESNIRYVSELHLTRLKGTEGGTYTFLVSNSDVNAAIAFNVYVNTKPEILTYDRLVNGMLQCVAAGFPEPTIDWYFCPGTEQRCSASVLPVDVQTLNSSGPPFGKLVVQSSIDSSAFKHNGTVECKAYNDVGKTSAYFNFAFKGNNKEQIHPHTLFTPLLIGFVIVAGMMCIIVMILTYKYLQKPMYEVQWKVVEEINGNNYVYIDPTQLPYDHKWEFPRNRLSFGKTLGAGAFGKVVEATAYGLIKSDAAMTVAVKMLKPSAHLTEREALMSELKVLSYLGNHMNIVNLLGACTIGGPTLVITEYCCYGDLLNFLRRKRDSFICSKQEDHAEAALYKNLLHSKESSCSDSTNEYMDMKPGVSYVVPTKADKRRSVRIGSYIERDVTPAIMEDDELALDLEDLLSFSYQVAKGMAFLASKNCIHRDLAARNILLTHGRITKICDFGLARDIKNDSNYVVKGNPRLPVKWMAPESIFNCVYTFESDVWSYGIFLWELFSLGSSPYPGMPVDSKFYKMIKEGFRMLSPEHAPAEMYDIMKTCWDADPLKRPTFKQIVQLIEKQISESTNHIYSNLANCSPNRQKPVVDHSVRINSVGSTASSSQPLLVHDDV", "experiment": "biochemical", "design": "KinomeScan competition binding panel (DiscoveRx), percent of control at 1 uM", "details": "read-out: Percent Control", "in_short": "as §1"}, "PKAC-alpha": {"target": "T6, PKAC-alpha (Homo sapiens, UniProt P17612)", "T6 construct": "gene PRKACA", "experiment": "biochemical", "design": "KinomeScan competition binding panel (DiscoveRx), percent of control at 1 uM", "details": "read-out: Percent Control", "in_short": "as §1"}, "PKNB(M.tuberculosis)": {"target": "PKNB(M.tuberculosis) (Mycobacterium tuberculosis, UniProt P9WI81)", "sequence (P9WI81 whole entry)": "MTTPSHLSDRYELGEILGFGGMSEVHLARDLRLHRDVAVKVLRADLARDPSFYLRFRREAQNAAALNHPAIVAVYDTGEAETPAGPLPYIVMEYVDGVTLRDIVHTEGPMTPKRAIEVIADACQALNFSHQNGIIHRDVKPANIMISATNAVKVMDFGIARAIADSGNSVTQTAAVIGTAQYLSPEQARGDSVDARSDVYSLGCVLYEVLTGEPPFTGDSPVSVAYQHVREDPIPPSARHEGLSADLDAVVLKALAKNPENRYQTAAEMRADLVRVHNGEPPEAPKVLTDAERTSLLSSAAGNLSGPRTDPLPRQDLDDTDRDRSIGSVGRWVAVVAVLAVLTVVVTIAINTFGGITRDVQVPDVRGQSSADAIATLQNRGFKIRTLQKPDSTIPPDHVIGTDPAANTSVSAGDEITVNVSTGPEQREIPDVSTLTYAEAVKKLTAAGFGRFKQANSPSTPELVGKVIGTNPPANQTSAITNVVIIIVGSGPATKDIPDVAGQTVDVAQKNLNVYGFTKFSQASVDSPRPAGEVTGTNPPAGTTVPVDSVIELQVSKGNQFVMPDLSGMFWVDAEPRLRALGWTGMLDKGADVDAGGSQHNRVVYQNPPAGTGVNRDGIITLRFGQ", "experiment": "biochemical", "design": "KinomeScan competition binding panel (DiscoveRx), percent of control at 1 uM", "details": "read-out: Percent Control"}, "PFCDPK1(P.falciparum)": {"target": "T7, PFCDPK1(P.falciparum) (Plasmodium falciparum, UniProt P62344)", "T7 construct": "gene CDPK1", "experiment": "biochemical", "design": "KinomeScan competition binding panel (DiscoveRx), percent of control at 1 uM", "details": "read-out: Percent Control"}}, "data": [{"smiles": "C=CC(=O)Nc1cc(-n2c(=O)ccc3cnc4ccc(-n5cccn5)cc4c32)ccc1C", "note": "[CHMFL-BTK-11]", "values": [{"measurement": "IC50", "setting": "[1]", "value": 26.8, "unit": "nM"}, {"measurement": "IC50", "setting": "JAK3 kinase", "value": 227, "unit": "nM"}, {"measurement": "remaining binding at 1 µM", "setting": "NEK10", "value": 97, "unit": "%"}, {"measurement": "remaining binding at 1 µM", "setting": "AKT2", "value": 100, "unit": "%"}, {"measurement": "remaining binding at 1 µM", "setting": "SIK", "value": 100, "unit": "%"}, {"measurement": "remaining binding at 1 µM", "setting": "NEK2", "value": 100, "unit": "%"}, {"measurement": "remaining binding at 1 µM", "setting": "MAST1", "value": 100, "unit": "%"}, {"measurement": "remaining binding at 1 µM", "setting": "SIK2", "value": 98, "unit": "%"}, {"measurement": "remaining binding at 1 µM", "setting": "GSK3B", "value": 100, "unit": "%"}, {"measurement": "remaining binding at 1 µM", "setting": "DYRK2", "value": 55, "unit": "%"}, {"measurement": "remaining binding at 1 µM", "setting": "ERBB3", "value": 90, "unit": "%"}, {"measurement": "remaining binding at 1 µM", "setting": "FLT3(N841I)", "value": 100, "unit": "%"}, {"measurement": "remaining binding at 1 µM", "setting": "ITK", "value": 100, "unit": "%"}, {"measurement": "remaining binding at 1 µM", "setting": "MLK1", "value": 100, "unit": "%"}, {"measurement": "remaining binding at 1 µM", "setting": "GRK7", "value": 100, "unit": "%"}, {"measurement": "remaining binding at 1 µM", "setting": "CDC2L5", "value": 98, "unit": "%"}, {"measurement": "remaining binding at 1 µM", "setting": "RIPK4", "value": 100, "unit": "%"}, {"measurement": "remaining binding at 1 µM", "setting": "KIT(A829P)", "value": 98, "unit": "%"}, {"measurement": "remaining binding at 1 µM", "setting": "PKAC-alpha", "value": 98, "unit": "%"}, {"measurement": "remaining binding at 1 µM", "setting": "PKNB(M.tuberculosis)", "value": 69, "unit": "%"}, {"measurement": "remaining binding at 1 µM", "setting": "PFCDPK1(P.falciparum)", "value": 97, "unit": "%"}]}]}
